Results from article PMC9502272, “A Metabolomics Approach for Predicting OATP1B-Type Transporter-Mediated Drug–Drug Interaction Liabilities” (Pharmaceutics, 2022).

Biological target: T1, Oatp1b2 (Mus musculus, UniProt Q9JJL3)
T1 sequence (Q9JJL3 1-689): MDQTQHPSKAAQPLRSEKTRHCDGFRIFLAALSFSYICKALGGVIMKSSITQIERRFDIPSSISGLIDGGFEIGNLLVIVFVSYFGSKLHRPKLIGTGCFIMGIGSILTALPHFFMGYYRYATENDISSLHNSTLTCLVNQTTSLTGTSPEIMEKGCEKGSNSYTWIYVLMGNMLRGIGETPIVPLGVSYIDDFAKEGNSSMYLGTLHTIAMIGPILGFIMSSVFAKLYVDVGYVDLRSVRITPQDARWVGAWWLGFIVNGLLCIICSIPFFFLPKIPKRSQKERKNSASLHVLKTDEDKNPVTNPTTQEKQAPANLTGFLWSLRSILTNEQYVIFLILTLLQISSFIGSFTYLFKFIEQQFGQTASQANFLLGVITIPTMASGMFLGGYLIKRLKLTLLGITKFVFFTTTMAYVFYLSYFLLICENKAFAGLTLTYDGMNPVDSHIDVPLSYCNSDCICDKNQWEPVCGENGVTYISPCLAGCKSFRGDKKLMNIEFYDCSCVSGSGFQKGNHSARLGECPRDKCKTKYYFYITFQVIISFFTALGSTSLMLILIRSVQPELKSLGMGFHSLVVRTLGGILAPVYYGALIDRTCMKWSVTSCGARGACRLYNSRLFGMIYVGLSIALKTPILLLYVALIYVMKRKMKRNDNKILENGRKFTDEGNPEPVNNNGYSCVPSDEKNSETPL
Assay: Untargeted metabolomics of plasma from untreated wild-type and Oatp1b2(−/−) mice
Settings: for Fold of Change KO/WT: plasma of untreated Oatp1b2-deficient (KO) vs wild-type (WT) mice, semi-quantitative, positive = higher in KO, n = 6 per group; for Mean value KO: plasma of untreated Oatp1b2-deficient mice; for Mean value KO / Mean value WT: raw area counts rescaled to median = 1; for Mean value WT: plasma of untreated wild-type mice

Row | Molecule | Fold of Change KO/WT | Mean value KO | Mean value WT
1 | O=C(O)CC[C@H](NC(=O)Cc1ccccc1)C(=O)O [phenylacetylglutamate] | 1.46 | 1.24 | .850
2 | O=C(O)CNC(=O)CCc1ccccc1 [phenylpropionylglycine] | 2.41 | 1.58 | .656
3 | Cc1ncc(CO)c(C=O)c1O [pyridoxal] | 1.47 | 1.28 | .868
4 | Cc1ncc(CO)c(C(=O)O)c1O [pyridoxate] | 1.34 | 1.21 | .902
5 | CCCCCCCCCCCCCCCCCC(N)=O [stearamide (18:0)] | 1.49 | 1.19 | .800
6 | C[C@H](CCC(=O)NCCS(=O)(=O)O)[C@H]1CC[C@H]2[C@@H]3CC[C@@H]4C[C@H](O)CC[C@]4(C)[C@H]3C[C@H](O)[C@]12C [taurodeoxycholate] | 3.45 | 1.82 | .528
7 | C[C@H](CCC(=O)NCCS(=O)(=O)O)[C@H]1CC[C@H]2[C@@H]3CC[C@@H]4C[C@H](OS(=O)(=O)O)CC[C@]4(C)[C@H]3C[C@H](O)[C@]12C [taurodeoxycholic acid 3-sulfate] | 1.58 | 1.10 | .694
8 | O=C(O)CCCCCCCCCCCCC(=O)O [tetradecanedioate (C14-DC)] | 4.27 | 1.96 | .459
9 | O=C(O)CCCCCCCCCC(=O)O [undecanedioate (C11-DC)] | 3.00 | 1.96 | .654
10 | C[C@H](CCC(=O)O)[C@H]1CC[C@H]2[C@@H]3[C@@H](O)C[C@@H]4C[C@H](O)CC[C@]4(C)[C@H]3C[C@H](O)[C@]12C [ursocholate] | 33.8 | 5.10 | .151
11 | Cc1c(C)c2c(c(C)c1O)CC[C@@](C)(CCC[C@H](C)CCC[C@H](C)CCCC(C)C)O2 [α-tocopherol] | 2.03 | 1.44 | .707
12 | (N(1) + N(8))-acetylspermidine | – | – | .931
13 | chenodeoxycholic acid sulfate (1) | 6.41 | 1.02 | .160
14 | eicosenamide (20:1) | 1.43 | 1.27 | .885
15 | enterolactone sulfate | 3.42 | 1.63 | .478
16 | heptadecenamide (17:1) | 1.37 | 1.29 | .939
17 | hexadecenedioate (C16:1-DC) | 3.61 | 1.62 | .448
18 | linolenoylcarnitine (C18:3) | 1.91 | 1.51 | .794
19 | nonadecenamide (19:1) | 1.39 | 1.27 | .917
20 | octadecadienedioate (C18:2-DC) | 3.48 | 1.88 | .540

The remaining lines, values ahead:

Row | Fold of Change KO/WT | Mean value KO | Mean value WT | Molecule
21 | 1.12 | 1.05 | .938 | O=C(O)C1CCCCN1 (stereo not shown) [pipecolate]
22 | 1.77 | 1.42 | .805 | Cc1ncc(CO)c(CN)c1O [pyridoxamine]
23 | 1.44 | 1.20 | .833 | O=C(O)CCCCCCCCC(=O)O [sebacate (C10-DC)]
24 | 2.25 | 0.960 | .425 | C[C@H](CCC(=O)NCCS(=O)(=O)O)[C@H]1CC[C@H]2[C@@H]3CC[C@@H]4C[C@H](OS(=O)(=O)O)CC[C@]4(C)[C@H]3CC[C@]12C [taurolithocholate 3-sulfate]
25 | 1.38 | 1.22 | .883 | C/C=C(\C)C(=O)NCC(=O)O [tigloylglycine]
26 | 4.07 | 2.16 | .530 | C[C@H](CCC(=O)O)[C@H]1CC[C@H]2[C@@H]3[C@@H](O)C[C@@H]4C[C@H](O)CC[C@]4(C)[C@H]3CC[C@]12C [ursodeoxycholate]
27 | 1.53 | 1.28 | .838 | CCCCC(=O)NCC(=O)O [valerylglycine]
28 | 1.72 | 1.37 | .795 | dihomo-linolenoylcarnitine (C20:3n3 or 6)
29 | 3.94 | 2.14 | .543 | dodecenedioate (C12:1-DC)
30 | 1.46 | 1.27 | .869 | eicosadienamide (20:2)
31 | 5.36 | 1.80 | .335 | eicosenedioate (C20:1-DC)
32 | 1.90 | 1.35 | .709 | equol glucuronide
33 | 2.58 | 1.62 | .626 | equol sulfate
34 | 2.66 | 1.45 | .544 | octadecenedioate (C18:1-DC)
35 | 12.7 | 2.35 | .185 | octadecenedioylcarnitine (C18:1-DC)
36 | 2.14 | 1.16 | .540 | pregnenediol disulfate (C21H34O8S2)
